These results are taken from US12202844B2, “MAP4K1 inhibitors” (Blueprint Medicines Corporation, priority 2021, dated 2025).

Experiment [1] deals with Primary T Cell (expanded CD3+ T cells). The experiment in a line: T cell enhancement of cytokines: IL2 measurement (HTRF) in stimulated expanded CD3+ T cells. In kind it is cell-based, human. The settings on record: plate-bound anti-CD3 and soluble anti-CD28, 24 h, IL2 by HTRF, read-out: IL-2 Primary T Cell EC50. The protocol:
T cells are isolated from whole blood of healthy donors by immunomagnetic negative selection following manufacture's protocol (StemCell Technologies, human T cell isolation kit). Purity of isolated cells is assessed by flow cytometry and yields 95-98% CD3^+ T cells. For expansion of T cells, 1×10^6 cells/well are plated in serum free cell expansion media (ThermoFisher) containing 30 U of recombinant human IL2 (R&D) and stimulated with 25 ul of CD3/CD28 beads (Invitrogen) in 24 well plates for 3-4 days. T cells are then expanded in 175 cm flasks and maintained at a cell density of 1 to 2.5×10^6 cells/ml days by addition of ⅔ of fresh media every 2-3 days. After 10-14 days, cells are frozen in BamBanker freezing media (Thermo) and stored in liquid nitrogen.
For IL2 measurement, expanded CD3^+ T cells are dispensed at 100K cells/well (cultured in X-VIVO 10 Serum-free media) and are stimulated with plate-bound anti-CD3 and soluble anti-CD28 in the presence of vehicle or compound of the disclosure at various concentrations for 24 h. As outlined in the manufacturer's protocol (Cisbio), 16 μL of conditioned media is transferred to a white 384-well low volume plate. Following a 24 h incubation with the anti-IL2 antibodies, the homogenous time resolved fluorescence (HTRF) is measured.

Experiment [2] deals with T1, MAP4K1 (HPK1) (Homo sapiens, UniProt Q92918).
T1 construct: purchased Invitrogen
The experiment in a line: Inhibition of MAP4K1 biochemical enzymatic activity (EZReader 2 electrophoretic mobility shift). The settings on record: HPK1 (Invitrogen), S6K2tide 1.5 μM, 120 min; ATP 26 μM or 1000 μM (not given). Summed up:
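Untreated enzyme (0.1-15 nM) was incubated with 1.5 μM fluorescent peptide and 20-1000 μM ATP (apparent Km or 1 mM) in HEPES pH 7.5, MgCl2, DTT, Brij 35 at 25° C. for 60-180 min, with 1% DMSO and a 10-point 4-fold compound series. After an EDTA stop, product/substrate peptide peak ratio was read by mobility shift.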

Molecules are shown by their SMILES. Read-outs that look alike come from different tables or passages of the source.

A word on the EC50: it is the concentration that produces a half-maximal response. What is called IC50 is the concentration needed to halve the response being measured.

T1 sequence (Q92918 whole entry): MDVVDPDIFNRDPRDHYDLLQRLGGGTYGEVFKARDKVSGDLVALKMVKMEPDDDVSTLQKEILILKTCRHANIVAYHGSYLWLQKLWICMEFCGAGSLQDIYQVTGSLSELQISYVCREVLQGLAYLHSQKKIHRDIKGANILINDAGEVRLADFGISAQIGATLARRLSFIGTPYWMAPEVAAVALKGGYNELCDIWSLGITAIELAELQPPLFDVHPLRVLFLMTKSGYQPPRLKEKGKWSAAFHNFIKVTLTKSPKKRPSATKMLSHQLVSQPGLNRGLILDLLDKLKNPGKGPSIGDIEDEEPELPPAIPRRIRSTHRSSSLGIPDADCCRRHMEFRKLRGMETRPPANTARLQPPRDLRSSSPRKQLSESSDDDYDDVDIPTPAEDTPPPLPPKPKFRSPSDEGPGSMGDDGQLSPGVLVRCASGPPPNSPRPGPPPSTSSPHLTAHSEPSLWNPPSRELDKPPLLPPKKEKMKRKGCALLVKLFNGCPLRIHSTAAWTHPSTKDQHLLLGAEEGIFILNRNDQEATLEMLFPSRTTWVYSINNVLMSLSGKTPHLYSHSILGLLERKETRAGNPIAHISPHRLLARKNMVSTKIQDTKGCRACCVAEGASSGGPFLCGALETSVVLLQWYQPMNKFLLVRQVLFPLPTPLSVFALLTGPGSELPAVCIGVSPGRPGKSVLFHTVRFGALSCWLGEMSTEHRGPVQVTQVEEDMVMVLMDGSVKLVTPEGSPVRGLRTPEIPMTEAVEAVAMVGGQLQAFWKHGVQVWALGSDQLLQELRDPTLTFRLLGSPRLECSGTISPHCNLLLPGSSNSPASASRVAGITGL

As for `C[C@@H]1COC(=O)c2ccc(Nc3cc4c(C(C)(C)N)cnc(O[C@H]5C[C@@H](S(C)(=O)=O)C5)c4cn3)nc21` (single isomer, unassigned) [Compound 6], in experiment [1] (Homo sapiens, T-cell, 24 h), the EC50 was found to be 7 nM. The IC50 in experiment [2] was found to be 0.18 nM.

`CC[C@@](C)(N)c1cnc(O[C@H](C)CCS(C)(=O)=O)c2cnc(Nc3ccc4c(n3)[C@H](C)COC4=O)cc12` (single isomer, unassigned) [Compound 16]: the EC50 in experiment [1] (Homo sapiens, T-cell, 24 h) is 44 nM. Moreover, in experiment [2], the IC50 was determined as 0.31 nM.

As to `C[C@@H]1OC(=O)c2ccc(Nc3cc4c(C(C)(C)N)cnc(O[C@@H](C)CCS(C)(=O)=O)c4cn3)nc2[C@H]1C` (single isomer, unassigned) [Compound 18], the EC50 in experiment [1] (Homo sapiens, T-cell, 24 h) was found to be 43 nM. In addition, the IC50 in experiment [2] was 0.33 nM.

Take `C[C@@H]1COC(=O)c2ccc(Nc3cc4c(C(C)(C)N)cnc(O[C@H]5C[C@@H](S(=O)(=O)C6CC6)C5)c4cn3)nc21` (single isomer, unassigned) [Compound 26]: the EC50 in experiment [1] (Homo sapiens, T-cell, 24 h) turned out to be 17 nM. In addition, the IC50 in experiment [2] amounted to 0.26 nM.

On to `C[C@H](CCS(C)(=O)=O)Oc1ncc(C(C)(C)N)c2cc(Nc3ccc4c(n3)C3(CC3)[C@@H](C)OC4=O)ncc12` (single isomer, unassigned) [Compound 29], for which the EC50 in experiment [1] (Homo sapiens, T-cell, 24 h) amounted to 24 nM. For the same molecule, in experiment [2], the IC50 came to 0.29 nM.

Regarding `CC[C@@](C)(N)c1cnc(O[C@H](C)C[C@@H](C)S(C)(=O)=O)c2cnc(Nc3ccc4c(n3)[C@H](C)COC4=O)cc12` (single isomer, unassigned) [Compound 47], the EC50 in experiment [1] (Homo sapiens, T-cell, 24 h) amounted to 53 nM. In experiment [2], the IC50 is 0.38 nM.

As to `CC[C@@](C)(N)c1cnc(O[C@H](C)C[C@@H](C)S(C)(=O)=O)c2cnc(Nc3ccc4c(n3)[C@H](C)COC4=O)cc12` (single isomer, unassigned) [Compound 48], the EC50 in experiment [1] came out at 55 nM. Besides, the IC50 in experiment [2] is 0.59 nM.

With `C[C@H](CCS(C)(=O)=O)Oc1ncc(C(C)(C)N)c2cc(Nc3ccc4c(n3)[C@@H](C)C(C)(C)OC4=O)ncc12` (single isomer, unassigned) [Compound 55], the EC50 in experiment [1] (Homo sapiens, T-cell, 24 h) turned out to be 34 nM. Besides, in experiment [2], the IC50 turned out to be 0.36 nM.

With `C[C@@H]1c2nc(Nc3cc4c(C(N)C5CC5)cnc(O[C@H]5C[C@@H](S(C)(=O)=O)C5)c4cn3)ccc2C(=O)OC1(C)C` (single isomer, unassigned) [Compound 62, (R)-2-((5-((S or R)-Amino(cyclopropyl)methyl)-8-(cis-3-(methylsulfonyl)cyclobutoxy)-2,7-naphthyridin-3-yl)amino)-7,7,8-trimethyl-7,8-dihydro-5H-pyrano[4,3-b]pyridin-5-one], the EC50 in experiment [1] (Homo sapiens, T-cell, 24 h) was determined as 76 nM. The IC50 in experiment [2] worked out at 0.33 nM.

Consider `C[C@H](C[C@@H](C)S(C)(=O)=O)Oc1ncc(C(C)(C)N)c2cc(Nc3ccc4c(n3)C3(CC3)[C@@H](C)OC4=O)ncc12` (single isomer, unassigned) [Compound 65], for which the EC50 in experiment [1] (Homo sapiens, T-cell, 24 h) is 11 nM. For the same molecule, the IC50 in experiment [2] was 0.2 nM.

As for `CC[C@@](C)(N)c1cnc(O[C@H](C)CCS(C)(=O)=O)c2cnc(Nc3ccc4c(n3)C3(CC3)[C@@H](C)OC4=O)cc12` (single isomer, unassigned) [Compound 66], the EC50 in experiment [1] (Homo sapiens, T-cell, 24 h) stood at 21 nM. The concentration for half-maximal inhibition (IC50) in experiment [2] was 0.24 nM.

Turning to `C[C@H]1[C@H](Oc2ncc(C(C)(C)N)c3cc(Nc4ccc5c(n4)[C@@H](C)C(C)(C)OC5=O)ncc23)C[C@@H]1S(C)(=O)=O` (single isomer, unassigned) [Compound 69], in experiment [1] (Homo sapiens, T-cell, 24 h), the EC50 stood at 15 nM. Besides, the IC50 in experiment [2] was determined as 0.1 nM.

As to `CC[C@@H](N)c1cnc(O[C@H]2C[C@@H](S(=O)(=O)CC)C2)c2cnc(Nc3ccc4c(n3)[C@@H](C)C(C)(C)OC4=O)cc12` (single isomer, unassigned) [Compound 74], the EC50 in experiment [1] (Homo sapiens, T-cell, 24 h) is 51 nM. In experiment [2], the IC50 was 0.33 nM.

Consider `C[C@@H]1c2nc(Nc3cc4c(C(C)(C)N)cnc(O[C@H]5C[C@H](CS(C)(=O)=O)C5)c4cn3)ccc2C(=O)OC1(C)C` (single isomer, unassigned) [Compound 75], for which, in experiment [1] (Homo sapiens, T-cell, 24 h), the EC50 came out at 28 nM. Further, the IC50 in experiment [2] was 0.07 nM.

`C[C@@H]1c2nc(Nc3cc4c(C(C)(C)N)cnc(O[C@H]5C[C@@H](CS(C)(=O)=O)C5)c4cn3)ccc2C(=O)OC1(C)C` (single isomer, unassigned) [Compound 76]: the EC50 in experiment [1] (Homo sapiens, T-cell, 24 h) stood at 25 nM. Also, the IC50 in experiment [2] is 0.07 nM.

With `CCC[C@@H](N)c1cnc(O[C@H]2C[C@@H](S(C)(=O)=O)C2)c2cnc(Nc3ccc4c(n3)[C@@H](C)C(C)(C)OC4=O)cc12` (single isomer, unassigned) [Compound 79], the EC50 in experiment [1] (Homo sapiens, T-cell, 24 h) worked out at 94 nM. The IC50 in experiment [2] came out at 0.34 nM.

Regarding `CCC[C@@](C)(N)c1cnc(O[C@H](C)CCS(C)(=O)=O)c2cnc(Nc3ccc4c(n3)CC(C)(C)OC4=O)cc12` (single isomer, unassigned) [Compound 85], the EC50 in experiment [1] (Homo sapiens, T-cell, 24 h) was found to be 85 nM. Moreover, the IC50 in experiment [2] is 0.37 nM.

With `CCC[C@@](C)(N)c1cnc(O[C@H](C)CCS(C)(=O)=O)c2cnc(Nc3ccc4c(n3)[C@@H](C)[C@H](C)OC4=O)cc12` (single isomer, unassigned) [Compound 86], in experiment [1] (Homo sapiens, T-cell, 24 h), the EC50 worked out at 26 nM. Besides, the IC50 in experiment [2] came to 0.2 nM.

For the molecule `CC[C@@](C)(N)c1cnc(O[C@H](C)CCS(=O)(=O)CC)c2cnc(Nc3ccc4c(n3)[C@@H](C)[C@H](C)OC4=O)cc12` (single isomer, unassigned) [Compound 92], in experiment [1] (Homo sapiens, T-cell, 24 h), the EC50 was found to be 15 nM. The IC50 in experiment [2] is 0.14 nM.

In the case of `CC[C@@](C)(N)c1cnc(O[C@H](C)CCS(=O)(=O)CC)c2cnc(Nc3ccc4c(n3)[C@@H](C)[C@H](C)OC4=O)cc12` (single isomer, unassigned) [Compound 93], the EC50 in experiment [1] was determined as 9 nM. The IC50 in experiment [2] turned out to be 0.19 nM.

With `CCS(=O)(=O)CC[C@@H](C)Oc1ncc(C(C)(C)N)c2cc(Nc3ccc4c(n3)[C@@H](C)C(C)(C)OC4=O)ncc12` (single isomer, unassigned) [Compound 98], in experiment [1] (Homo sapiens, T-cell, 24 h), the EC50 is 67 nM. For the same molecule, the IC50 in experiment [2] was 0.23 nM.

Take `CCS(=O)(=O)CC[C@@H](C)Oc1ncc(C(C)(C)N)c2cc(Nc3ccc4c(n3)[C@@H](C)C(C)(C)OC4=O)ncc12` (single isomer, unassigned) [Compound 99]: the EC50 in experiment [1] is 72 nM. For the same molecule, the IC50 in experiment [2] stood at 0.39 nM.

As to `CC[C@@](C)(N)c1cnc(O[C@H](C)C[C@@H](C)S(C)(=O)=O)c2cnc(Nc3ccc4c(n3)C3(CC3)[C@@H](C)OC4=O)cc12` (single isomer, unassigned) [Compound 104], in experiment [1] (Homo sapiens, T-cell, 24 h), the EC50 turned out to be 10 nM. The concentration for half-maximal inhibition (IC50) in experiment [2] was 0.17 nM.

For the molecule `C[C@H](C[C@@H](C)S(C)(=O)=O)Oc1ncc([C@H](N)C2CC2)c2cc(Nc3ccc4c(n3)[C@@H](C)C(C)(C)OC4=O)ncc12` (single isomer, unassigned) [Compound 110], the EC50 in experiment [1] (Homo sapiens, T-cell, 24 h) amounted to 36 nM. Also, the IC50 in experiment [2] was determined as 0.22 nM.

For `CCS(=O)(=O)C[C@H]1C[C@@H](Oc2ncc(C(C)(C)N)c3cc(Nc4ccc5c(n4)[C@@H](C)C(C)(C)OC5=O)ncc23)C1` (single isomer, unassigned) [Compound 112], the EC50 in experiment [1] (Homo sapiens, T-cell, 24 h) was determined as 25 nM. In addition, in experiment [2], the IC50 came to 0.13 nM.

In the case of `CCC[C@@H](N)c1cnc(O[C@H]2C[C@@H](S(=O)(=O)CC)C2)c2cnc(Nc3ccc4c(n3)[C@@H](C)C(C)(C)OC4=O)cc12` (single isomer, unassigned) [Compound 115], the EC50 in experiment [1] (Homo sapiens, T-cell, 24 h) was determined as 59 nM. The IC50 in experiment [2] worked out at 0.33 nM.

`COC[C@@](C)(N)c1cnc(O[C@H]2C[C@@H](CS(C)(=O)=O)C2)c2cnc(Nc3ccc4c(n3)[C@@H](C)[C@H](C)OC4=O)cc12` [Compound 121]: in experiment [2], the IC50 came out at 0.59 nM.

For the molecule `COC[C@@](C)(N)c1cnc(O[C@H](C)C[C@@H](C)S(C)(=O)=O)c2cnc(Nc3ccc4c(n3)[C@@H](C)[C@H](C)OC4=O)cc12` [Compound 134], the 50% inhibitory concentration (IC50) in experiment [2] was 0.48 nM.

Take `COC[C@@](C)(N)c1cnc(OCCCS(C)(=O)=O)c2cnc(Nc3ccc4c(n3)[C@@H](C)C(C)(C)OC4=O)cc12` [Compound 135]: in experiment [2], the IC50 stood at 0.45 nM.

On to `CC[C@@](C)(N)c1cnc(O[C@@H](C)CCS(C)(=O)=O)c2cnc(Nc3ccc4c(n3)C3(CC3)C(C)(C)OC4=O)cc12` [Compound 146], for which the IC50 in experiment [2] is 1.41 nM.

As to `COC[C@@](C)(N)c1cnc(O[C@H](C)C[C@@H](C)S(C)(=O)=O)c2cnc(Nc3ccc4c(n3)C3(CC3)C(C)(C)OC4=O)cc12` [Compound 164], the IC50 in experiment [2] was 1.48 nM.

In the case of `CC[C@@](C)(N)c1cnc(O[C@@H](C)CCS(C)(=O)=O)c2cnc(Nc3ccc4c(n3)C(C)(C)[C@@H](C)OC4=O)cc12` [Compound 177], in experiment [2], the IC50 turned out to be 1.1 nM.

`CC[C@@](C)(N)c1cnc(O[C@H](C)CCS(C)(=O)=O)c2cnc(Nc3ccc4c(n3)C(C)(C)[C@@H](C)OC4=O)cc12` [Compound 178]: in experiment [2], the IC50 is 0.55 nM.
